In US8048825B2, “Haloalkylsulfonanilide derivatives or salt thereof, herbicide comprising the derivatives as active ingredient, and use of the herbicide” (Nihon Nohyaku Co., Ltd., priority 2006, dated 2011):

What was measured:
Type in all cases: in vivo
[1] = tested on: Scirpus juncoides; assay: Herbicidal efficacy on paddy field weeds of pre-emergence stage (Pre), Test Example 1; conditions: 1000 g/ha as active ingredient, examined after 21 days
Procedure, shortened: (§1)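 Pre-emergence paddy test: 1000 g/ha active ingredient, formulated and water-diluted, dropped onto 5 cm floodwater one day after sowing both weeds in clay loam. After 21 days in greenhouse, inhibition relative to untreated control rated on 0 (0%) to 5 (100%) scale.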

[2] = tested on: Lindernia procumbens; assay: as above; conditions: 1000 g/ha as active ingredient, examined after 21 days
Procedure, shortened: as §1

[3] = tested on: Scirpus juncoides; assay: Herbicidal effect on paddy field weeds of post-emergence stage (Post), Test Example 2; conditions: one-leaf stage, 1000 g/ha as active ingredient, examined after 21 days
Procedure, shortened: (§2)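 Post-emergence paddy test: formulated compound added to 5 cm standing water at 1000 g/ha a.i. when weeds reached one-leaf stage in clay loam pots in greenhouse. Growth inhibition rated 21 days later versus untreated control on a 0 (0%) to 5 (100%) scale.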

[4] = tested on: Echinochloa crus-galli; assay: as above; conditions: one-leaf stage, 1000 g/ha as active ingredient, examined after 21 days
Procedure, shortened: as §2

[5] = tested on: Lindernia procumbens; assay: as above; conditions: one-leaf stage, 1000 g/ha as active ingredient, examined after 21 days
Procedure, shortened: as §2

| SMILES | Scirpus juncoides pre (herbicidal effect) [1] | Lindernia procumbens pre (herbicidal effect) [2] | Scirpus juncoides post (herbicidal effect) [3] | Echinochloa crus-galli post (herbicidal effect) [4] | Lindernia procumbens post (herbicidal effect) [5] |
| --- | --- | --- | --- | --- | --- |
| CCCC1(CC)CCN(Cc2ccccc2N(C(=O)OCC)S(=O)(=O)C(F)(F)F)C(=O)O1 (racemic) [Compound 1-496] | 5 (100% herbicidal effect, phytotoxicity) | 5 (100% herbicidal effect, phytotoxicity) | 4 (90%-99% herbicidal effect, phytotoxicity) | 4 (90%-99% herbicidal effect, phytotoxicity) | 5 (100% herbicidal effect, phytotoxicity) |
| CCCC1(CC)CCN(Cc2ccccc2N(C(=O)OCC(C)C)S(=O)(=O)C(F)(F)F)C(=O)O1 (racemic) [Compound 1-499] | 5 (100% herbicidal effect, phytotoxicity) | 5 (100% herbicidal effect, phytotoxicity) | 4 (90%-99% herbicidal effect, phytotoxicity) | 4 (90%-99% herbicidal effect, phytotoxicity) | 5 (100% herbicidal effect, phytotoxicity) |
| CCCC1(CC)CCN(Cc2ccccc2N(C(=O)Oc2ccccc2)S(=O)(=O)C(F)(F)F)C(=O)O1 (racemic) [Compound 1-501] | 5 (100% herbicidal effect, phytotoxicity) | 5 (100% herbicidal effect, phytotoxicity) | 4 (90%-99% herbicidal effect, phytotoxicity) | 5 (100% herbicidal effect, phytotoxicity) | 5 (100% herbicidal effect, phytotoxicity) |
| O=C1OCCCCN1Cc1ccccc1NS(=O)(=O)C(F)(F)F [2-1] | 4 (90%-99% herbicidal effect, phytotoxicity) | 4 (90%-99% herbicidal effect, phytotoxicity) | 4 (90%-99% herbicidal effect, phytotoxicity) | 4 (90%-99% herbicidal effect, phytotoxicity) | 4 (90%-99% herbicidal effect, phytotoxicity) |
| CCOC(=O)N(c1ccccc1CN1CCCCOC1=O)S(=O)(=O)C(F)(F)F [2-3] | 4 (90%-99% herbicidal effect, phytotoxicity) | 4 (90%-99% herbicidal effect, phytotoxicity) | 4 (90%-99% herbicidal effect, phytotoxicity) | 4 (90%-99% herbicidal effect, phytotoxicity) | 4 (90%-99% herbicidal effect, phytotoxicity) |
| CCCOC(=O)N(c1ccccc1CN1CCCCOC1=O)S(=O)(=O)C(F)(F)F [2-4] | 4 (90%-99% herbicidal effect, phytotoxicity) | 4 (90%-99% herbicidal effect, phytotoxicity) | 4 (90%-99% herbicidal effect, phytotoxicity) | 4 (90%-99% herbicidal effect, phytotoxicity) | 4 (90%-99% herbicidal effect, phytotoxicity) |
| CCCCOC(=O)N(c1ccccc1CN1CCCCOC1=O)S(=O)(=O)C(F)(F)F [2-5] | 4 (90%-99% herbicidal effect, phytotoxicity) | 4 (90%-99% herbicidal effect, phytotoxicity) | 4 (90%-99% herbicidal effect, phytotoxicity) | 4 (90%-99% herbicidal effect, phytotoxicity) | 4 (90%-99% herbicidal effect, phytotoxicity) |
| CC(C)COC(=O)N(c1ccccc1CN1CCCCOC1=O)S(=O)(=O)C(F)(F)F [2-6] | 4 (90%-99% herbicidal effect, phytotoxicity) | 4 (90%-99% herbicidal effect, phytotoxicity) | 4 (90%-99% herbicidal effect, phytotoxicity) | 4 (90%-99% herbicidal effect, phytotoxicity) | 4 (90%-99% herbicidal effect, phytotoxicity) |
| CCOC(=O)N(c1ccccc1CN1CCCCOC1=S)S(=O)(=O)C(F)(F)F [2-14] | 4 (90%-99% herbicidal effect, phytotoxicity) | 4 (90%-99% herbicidal effect, phytotoxicity) | 4 (90%-99% herbicidal effect, phytotoxicity) | 4 (90%-99% herbicidal effect, phytotoxicity) | 4 (90%-99% herbicidal effect, phytotoxicity) |
| CCCCOC(=O)N(c1ccccc1CN1CCCOC1=O)S(=O)(=O)C(F)(F)F [Compound 1-5] | 4 (90%-99% herbicidal effect, phytotoxicity) | 4 (90%-99% herbicidal effect, phytotoxicity) | 4 (90%-99% herbicidal effect, phytotoxicity) | 4 (90%-99% herbicidal effect, phytotoxicity) | 4 (90%-99% herbicidal effect, phytotoxicity) |
| CC(C)COC(=O)N(c1ccccc1CN1CCCOC1=O)S(=O)(=O)C(F)(F)F [Compound 1-6] | 4 (90%-99% herbicidal effect, phytotoxicity) | 4 (90%-99% herbicidal effect, phytotoxicity) | 4 (90%-99% herbicidal effect, phytotoxicity) | 4 (90%-99% herbicidal effect, phytotoxicity) | 4 (90%-99% herbicidal effect, phytotoxicity) |
| CCCCOC(=O)N(c1ccccc1CN1CCCOC1=S)S(=O)(=O)C(F)(F)F [Compound 1-16] | 4 (90%-99% herbicidal effect, phytotoxicity) | 4 (90%-99% herbicidal effect, phytotoxicity) | 4 (90%-99% herbicidal effect, phytotoxicity) | 4 (90%-99% herbicidal effect, phytotoxicity) | 4 (90%-99% herbicidal effect, phytotoxicity) |
| CC(C)COC(=O)N(c1ccccc1CN1CCCOC1=S)S(=O)(=O)C(F)(F)F [Compound 1-17] | 4 (90%-99% herbicidal effect, phytotoxicity) | 4 (90%-99% herbicidal effect, phytotoxicity) | 4 (90%-99% herbicidal effect, phytotoxicity) | 4 (90%-99% herbicidal effect, phytotoxicity) | 4 (90%-99% herbicidal effect, phytotoxicity) |
| CC1(C)COC(=O)N(Cc2ccccc2NS(=O)(=O)C(F)(F)F)C1 [Compound 1-23] | 4 (90%-99% herbicidal effect, phytotoxicity) | 4 (90%-99% herbicidal effect, phytotoxicity) | 4 (90%-99% herbicidal effect, phytotoxicity) | 4 (90%-99% herbicidal effect, phytotoxicity) | 4 (90%-99% herbicidal effect, phytotoxicity) |
| CCOC(=O)N(c1ccccc1CN1CC(C)(C)COC1=O)S(=O)(=O)C(F)(F)F [Compound 1-25] | 4 (90%-99% herbicidal effect, phytotoxicity) | 4 (90%-99% herbicidal effect, phytotoxicity) | 4 (90%-99% herbicidal effect, phytotoxicity) | 4 (90%-99% herbicidal effect, phytotoxicity) | 4 (90%-99% herbicidal effect, phytotoxicity) |
| CCCOC(=O)N(c1ccccc1CN1CC(C)(C)COC1=O)S(=O)(=O)C(F)(F)F [Compound 1-26] | 4 (90%-99% herbicidal effect, phytotoxicity) | 4 (90%-99% herbicidal effect, phytotoxicity) | 4 (90%-99% herbicidal effect, phytotoxicity) | 4 (90%-99% herbicidal effect, phytotoxicity) | 4 (90%-99% herbicidal effect, phytotoxicity) |
| CCCCOC(=O)N(c1ccccc1CN1CC(C)(C)COC1=O)S(=O)(=O)C(F)(F)F [Compound 1-27] | 4 (90%-99% herbicidal effect, phytotoxicity) | 4 (90%-99% herbicidal effect, phytotoxicity) | 4 (90%-99% herbicidal effect, phytotoxicity) | 4 (90%-99% herbicidal effect, phytotoxicity) | 4 (90%-99% herbicidal effect, phytotoxicity) |
| CC(C)COC(=O)N(c1ccccc1CN1CC(C)(C)COC1=O)S(=O)(=O)C(F)(F)F [Compound 1-28] | 4 (90%-99% herbicidal effect, phytotoxicity) | 4 (90%-99% herbicidal effect, phytotoxicity) | 4 (90%-99% herbicidal effect, phytotoxicity) | 4 (90%-99% herbicidal effect, phytotoxicity) | 4 (90%-99% herbicidal effect, phytotoxicity) |
| CCOC(=O)N(c1ccccc1CN1CC(C)(C)COC1=S)S(=O)(=O)C(F)(F)F [Compound 1-36] | 4 (90%-99% herbicidal effect, phytotoxicity) | 4 (90%-99% herbicidal effect, phytotoxicity) | 4 (90%-99% herbicidal effect, phytotoxicity) | 4 (90%-99% herbicidal effect, phytotoxicity) | 4 (90%-99% herbicidal effect, phytotoxicity) |
